Measurements reported in ChEMBL document CHEMBL4359847, “Novel N-aryl nicotinamide derivatives: Taking stock on 3,6-diazabicyclo[3.1.1]heptanes as ligands for neuronal acetylcholine receptors” (Eur J Med Chem, 2019).
The source made the active and inactive calls. The calls are words filed in the database; no cut-off is given here.

What was measured:
Rattus norvegicus = organism: Rattus norvegicus; assay: Selectivity index, ratio of Ki for alpha7 nAChR in rat hippocampus membrane to Ki for alpha4beta2 nAChR in rat cerebral cortex membrane; format: cell membranes
[1] = biological target: Neuronal acetylcholine receptor subunit alpha-7 (Rattus norvegicus, UniProt Q05941); assay: Displacement of [125I]alpha-bungarotoxin from alpha7nAChR in rat hippocampus membrane; format: cell membranes
[2] = biological target: T1, Neuronal acetylcholine receptor; alpha4/beta2 (Rattus norvegicus, UniProt P09483+P12390); assay: Displacement of [3H]epibatidine from alpha4beta2 nAChR in rat cerebral cortex membrane; format: cell membranes
[3] = biological target: T2, Neuronal acetylcholine receptor; alpha3/beta4 (Homo sapiens, UniProt P30926+P32297); assay: Displacement of [3H]epibatidine from human alpha3beta4 nAChR transfected in […] cell membrane; format: cell membranes
[4] = Selectivity index, ratio of Ki for human alpha3beta4 nAChR in […] cell membrane to Ki for alpha4beta2 nAChR in rat cerebral cortex membrane; format: cell-based
[5] = biological target: T2, Neuronal acetylcholine receptor; alpha3/beta4; assay: Agonist activity at human alpha3beta4 nAChR expressed in GH4C1 cells assessed as inward channel current at 0.01 to 100 uM measured after 3 to 4 days at -70 mV holding potential by patch clamp assay; format: cell-based
[6] = biological target: T3, Neuronal acetylcholine receptor; alpha4/beta2 (Homo sapiens, UniProt P17787+P43681); assay: Agonist activity at human alpha4beta2 nAChR expressed in GH4C1 cells assessed as increase in inward channel current measured after 3 to 4 days at -70 mV holding potential by patch clamp assay; format: cell-based
[7] = biological target: T3, Neuronal acetylcholine receptor; alpha4/beta2; assay: Agonist activity at human alpha4beta2 nAChR expressed in GH4C1 cells assessed as increase in inward channel current measured after 3 to 4 days at -70 mV holding potential by patch clamp assay relative to acetylcholine; format: cell-based
[8] = biological target: T2, Neuronal acetylcholine receptor; alpha3/beta4; assay: Agonist activity at human alpha3beta4 nAChR expressed in GH4C1 cells assessed as increase in inward channel current measured after 3 to 4 days at -70 mV holding potential by patch clamp assay; format: cell-based
[9] = biological target: T2, Neuronal acetylcholine receptor; alpha3/beta4; assay: Agonist activity at human alpha3beta4 nAChR expressed in GH4C1 cells assessed as increase in inward channel current at >1 uM measured after 3 to 4 days at -70 mV holding potential by patch clamp assay; format: cell-based
[10] = biological target: T1, Neuronal acetylcholine receptor; alpha4/beta2; assay: Displacement of [3H]cytisine from alpha4beta2 nAChR in rat brain cerebral cortex membrane incubated for 75 mins by scintillation counting method; format: cell membranes

Neuronal acetylcholine receptor subunit alpha-7, sequence (Q05941 whole entry): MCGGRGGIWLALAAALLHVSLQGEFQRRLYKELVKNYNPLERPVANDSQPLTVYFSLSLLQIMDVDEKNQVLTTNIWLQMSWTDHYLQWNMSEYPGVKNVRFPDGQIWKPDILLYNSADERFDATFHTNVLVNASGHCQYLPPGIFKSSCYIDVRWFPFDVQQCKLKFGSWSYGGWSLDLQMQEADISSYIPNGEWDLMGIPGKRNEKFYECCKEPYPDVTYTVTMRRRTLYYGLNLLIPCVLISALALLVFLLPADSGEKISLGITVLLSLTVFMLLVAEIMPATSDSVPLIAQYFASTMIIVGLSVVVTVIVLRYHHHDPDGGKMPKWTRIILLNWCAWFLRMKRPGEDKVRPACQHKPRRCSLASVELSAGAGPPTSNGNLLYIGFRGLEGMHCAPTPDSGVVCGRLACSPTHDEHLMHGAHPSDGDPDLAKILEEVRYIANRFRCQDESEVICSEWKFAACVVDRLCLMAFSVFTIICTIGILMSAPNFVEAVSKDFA
T1 sequence (P09483 whole entry): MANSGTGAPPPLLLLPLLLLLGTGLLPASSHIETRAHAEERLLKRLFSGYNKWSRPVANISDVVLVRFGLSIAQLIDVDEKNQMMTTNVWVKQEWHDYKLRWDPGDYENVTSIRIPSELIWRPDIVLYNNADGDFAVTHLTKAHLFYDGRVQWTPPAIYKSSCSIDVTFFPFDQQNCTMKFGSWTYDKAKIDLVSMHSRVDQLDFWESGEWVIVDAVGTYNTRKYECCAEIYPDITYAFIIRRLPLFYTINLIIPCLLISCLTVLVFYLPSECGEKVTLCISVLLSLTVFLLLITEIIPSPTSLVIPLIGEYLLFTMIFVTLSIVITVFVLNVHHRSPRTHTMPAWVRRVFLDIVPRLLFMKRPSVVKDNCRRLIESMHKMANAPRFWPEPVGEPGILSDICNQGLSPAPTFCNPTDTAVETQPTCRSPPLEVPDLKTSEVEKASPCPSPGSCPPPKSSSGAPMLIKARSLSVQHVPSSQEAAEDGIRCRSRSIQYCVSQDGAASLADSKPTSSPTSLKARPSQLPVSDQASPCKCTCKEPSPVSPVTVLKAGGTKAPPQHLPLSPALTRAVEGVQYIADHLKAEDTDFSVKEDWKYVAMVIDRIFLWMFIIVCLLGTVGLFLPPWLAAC
T1 sequence (P12390 whole entry): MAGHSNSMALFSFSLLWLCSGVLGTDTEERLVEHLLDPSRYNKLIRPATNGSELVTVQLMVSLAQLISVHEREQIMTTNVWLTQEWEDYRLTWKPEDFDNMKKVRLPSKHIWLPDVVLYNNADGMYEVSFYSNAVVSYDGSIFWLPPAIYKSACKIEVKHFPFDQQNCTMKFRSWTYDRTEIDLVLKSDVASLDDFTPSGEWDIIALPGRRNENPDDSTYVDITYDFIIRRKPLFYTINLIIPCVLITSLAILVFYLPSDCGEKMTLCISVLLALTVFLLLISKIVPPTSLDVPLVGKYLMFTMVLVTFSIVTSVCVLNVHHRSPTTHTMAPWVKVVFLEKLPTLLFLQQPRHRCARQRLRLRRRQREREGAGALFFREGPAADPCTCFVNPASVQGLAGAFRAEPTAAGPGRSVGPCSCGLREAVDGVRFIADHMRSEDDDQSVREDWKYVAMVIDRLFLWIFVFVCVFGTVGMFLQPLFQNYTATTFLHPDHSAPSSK
T3 sequence (P17787 whole entry): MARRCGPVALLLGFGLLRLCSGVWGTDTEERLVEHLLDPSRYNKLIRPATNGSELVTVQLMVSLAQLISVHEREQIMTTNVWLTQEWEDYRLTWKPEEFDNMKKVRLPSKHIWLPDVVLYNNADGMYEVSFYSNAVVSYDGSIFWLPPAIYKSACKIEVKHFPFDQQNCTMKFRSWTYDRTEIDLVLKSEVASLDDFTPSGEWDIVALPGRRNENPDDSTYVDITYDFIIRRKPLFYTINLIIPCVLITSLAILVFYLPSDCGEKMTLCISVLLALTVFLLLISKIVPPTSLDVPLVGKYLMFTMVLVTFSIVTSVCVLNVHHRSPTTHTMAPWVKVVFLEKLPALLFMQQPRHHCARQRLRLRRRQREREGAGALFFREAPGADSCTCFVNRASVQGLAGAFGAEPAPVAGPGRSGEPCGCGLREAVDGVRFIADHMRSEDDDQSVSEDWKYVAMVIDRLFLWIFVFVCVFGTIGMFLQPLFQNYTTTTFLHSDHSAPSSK
T3 sequence (P43681 whole entry): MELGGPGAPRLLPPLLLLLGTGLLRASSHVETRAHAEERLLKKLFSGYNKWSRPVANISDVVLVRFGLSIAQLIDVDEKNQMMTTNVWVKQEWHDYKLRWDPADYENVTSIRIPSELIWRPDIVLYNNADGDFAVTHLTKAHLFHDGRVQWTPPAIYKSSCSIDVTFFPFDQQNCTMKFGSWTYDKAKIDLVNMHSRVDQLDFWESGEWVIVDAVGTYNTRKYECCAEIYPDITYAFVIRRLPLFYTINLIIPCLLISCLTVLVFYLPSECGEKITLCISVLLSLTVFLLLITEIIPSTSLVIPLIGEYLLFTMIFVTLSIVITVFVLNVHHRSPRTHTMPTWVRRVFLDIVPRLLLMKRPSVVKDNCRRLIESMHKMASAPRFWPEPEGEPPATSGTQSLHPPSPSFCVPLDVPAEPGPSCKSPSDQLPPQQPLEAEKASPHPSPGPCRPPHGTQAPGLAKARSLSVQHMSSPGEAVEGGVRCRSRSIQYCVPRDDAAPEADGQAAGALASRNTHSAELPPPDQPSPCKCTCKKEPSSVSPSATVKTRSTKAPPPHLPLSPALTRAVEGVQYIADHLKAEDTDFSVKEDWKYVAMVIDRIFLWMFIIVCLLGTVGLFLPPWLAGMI
T2 sequence (P30926 whole entry): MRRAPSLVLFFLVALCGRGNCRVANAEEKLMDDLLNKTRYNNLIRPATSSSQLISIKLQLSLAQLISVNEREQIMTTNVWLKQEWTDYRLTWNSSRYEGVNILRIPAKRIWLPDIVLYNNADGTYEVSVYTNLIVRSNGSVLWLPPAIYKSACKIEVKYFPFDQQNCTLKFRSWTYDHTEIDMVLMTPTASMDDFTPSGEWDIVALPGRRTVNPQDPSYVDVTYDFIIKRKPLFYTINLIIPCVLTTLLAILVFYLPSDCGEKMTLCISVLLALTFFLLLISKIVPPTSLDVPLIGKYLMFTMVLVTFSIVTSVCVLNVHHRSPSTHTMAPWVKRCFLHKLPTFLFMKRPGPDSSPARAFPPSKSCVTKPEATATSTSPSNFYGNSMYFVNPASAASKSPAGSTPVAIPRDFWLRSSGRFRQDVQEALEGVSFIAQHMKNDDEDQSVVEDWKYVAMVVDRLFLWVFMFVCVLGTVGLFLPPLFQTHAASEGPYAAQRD
T2 sequence (P32297 whole entry): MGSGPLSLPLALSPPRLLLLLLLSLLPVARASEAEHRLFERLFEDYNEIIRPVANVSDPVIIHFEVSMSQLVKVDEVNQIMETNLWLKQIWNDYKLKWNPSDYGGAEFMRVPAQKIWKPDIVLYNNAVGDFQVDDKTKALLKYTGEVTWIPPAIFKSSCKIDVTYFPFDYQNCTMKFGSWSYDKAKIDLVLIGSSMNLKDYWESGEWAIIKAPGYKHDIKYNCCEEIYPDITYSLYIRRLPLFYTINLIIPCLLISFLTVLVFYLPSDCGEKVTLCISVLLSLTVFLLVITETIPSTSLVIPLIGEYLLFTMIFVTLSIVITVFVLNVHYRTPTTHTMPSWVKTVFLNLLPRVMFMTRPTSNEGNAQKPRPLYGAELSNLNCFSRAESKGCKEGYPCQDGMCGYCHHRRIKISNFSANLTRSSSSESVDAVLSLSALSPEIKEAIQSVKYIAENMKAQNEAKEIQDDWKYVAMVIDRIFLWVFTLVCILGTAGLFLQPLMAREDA

| SMILES | Ratio Ki (Rattus norvegicus) | Ki [1] [nM] | Ki [2] [nM] | Ki [3] [nM] | Ratio Ki [4] | Activity [5] | EC50 [6] [nM] | Imax [7] [%] | EC50 [8] [nM] | Activity [9] | Ki [10] [nM] |
| --- | --- | --- | --- | --- | --- | --- | --- | --- | --- | --- | --- |
| COc1cc(NC(=O)c2cncc(N3CC4CC(C3)N4)c2)cc(OC)c1 | 43800 | 43100 | 0.985 | 2000 | 2030 | – | – | – | – | – | – |
| O=C(NCc1ccccc1)c1cncc(N2CC3CC(C2)N3)c1 | 594 | 1070 | 1.8 | 1600 | 889 | – | – | – | – | – | – |
| O=C(Nc1cccc(Cl)c1)c1cncc(N2CC3CC(C2)N3)c1 | 545000 | 22900 | 0.042 | 59 | 1400 | inactive | 1000 | 37 | – | – | – |
| O=C(Nc1cccc(F)c1)c1cncc(N2CC3CC(C2)N3)c1 | 634000 | 27900 | 0.044 | 28 | 636 | – | – | – | – | – | – |
| COc1cccc(NC(=O)c2cncc(N3CC4CC(C3)N4)c2)c1 | > 89300 | > 50000 | 0.56 | 265 | 473 | – | 600 | 38 | > 10000 | Active | – |
| O=C(Nc1ccccc1)c1cncc(N2CC3CC(C2)N3)c1 | 2180 | 2400 | 1.1 | 192 | 174 | – | – | – | – | – | – |
| O=C(Nc1ccc(F)cc1)c1cncc(N2CC3CC(C2)N3)c1 | 3.32e+06 | 33200 | 0.01 | 81 | 8100 | – | 520 | 41 | > 10000 | Active | – |
| O=C(Nc1ccccc1F)c1cncc(N2CC3CC(C2)N3)c1 | 10800 | 3400 | 0.315 | 102 | 324 | – | – | – | – | – | – |
| CCc1cccc(NC(=O)c2cncc(N3CC4CC(C3)N4)c2)c1 | > 38500 | > 50000 | 1.3 | 306 | 235 | – | – | – | – | – | – |
| Clc1ccc(N2CC3CCC(C2)N3)cn1 | – | – | – | – | – | – | – | – | – | – | 0.95 |
| O=C(c1cncc(N2CC3CC(C2)N3)c1)N1CCCc2ccccc21 | > 255000 | > 50000 | 0.196 | 62 | 316 | – | – | – | – | – | – |
| O=C(Nc1ccc(Cl)cc1)c1cncc(N2CC3CC(C2)N3)c1 | 32200 | 13000 | 0.404 | 123 | 304 | – | – | – | – | – | – |
| O=C(Nc1ccc(I)cc1)c1cncc(N2CC3CC(C2)N3)c1 | 63900 | 23400 | 0.366 | 103 | 281 | – | – | – | – | – | – |
| O=C(Nc1ccc(F)cc1F)c1cncc(N2CC3CC(C2)N3)c1 | > 980000 | > 50000 | 0.051 | 50 | 980 | – | – | – | – | – | – |
| COc1ccc(NC(=O)c2cncc(N3CC4CC(C3)N4)c2)cc1OC | 2780 | 2300 | 0.828 | 516 | 623 | – | – | – | – | – | – |
| O=C(c1cncc(N2CC3CC(C2)N3)c1)N1CCc2ccccc2C1 | 32300 | 1000 | 0.031 | 21 | 677 | – | – | – | – | – | – |
| O=C(Nc1ccc2c(c1)OCO2)c1cncc(N2CC3CC(C2)N3)c1 | 79200 | 8400 | 0.106 | 113 | 1070 | – | – | – | – | – | – |
